Where two headings read alike, the source gives them in different places.
Tests used:
[1] = biological target: Human CB1R (Cannabinoid receptor 1) (Homo sapiens (Human), UniProt P21554); experiment: CB-1 in vitro cAMP assay (HTRF), inverse agonism; type: cell-based; details: mean where tested more than once
[2] = Mouse Fast PK/BBB (plasma and brain concentration); type: in vivo; details: oral, N=3 (dose given as 30 mg/kg and 20 mg/kg)
[3] = biological target: Human CB2R (Cannabinoid receptor 2) (Homo sapiens (Human), UniProt P34972); experiment: CB-2 in vitro cAMP assay (HTRF), inverse agonism; type: cell-based; details: mean where tested more than once
[4] = Mouse Fast PK/BBB (plasma and brain concentration); type: in vivo; details: male, C57bl/6j, oral, N=3 (dose given as 30 mg/kg and 20 mg/kg)
From the text: Male Sprague Dawley rats were ordered from Charles River (225-250 gm upon arrival). They were fed standard chow diet (Purina 5001) and housed 2 per cage. Male C57bl/6j mice were ordered from Charles River at 22-25 g and housed 3 per cage. They were fed standard chow (Purina 5001). All animals were housed in a temperature-controlled room with 12-hour light/dark cycle. Animals were given food and water ad libitum, except as noted.
Test compounds were formulated in 10% PEG400 and 10% solutol. Test compounds were administered by oral gavage (5 ml kg^−1).
Male C57bl/6j mice were dosed with test compounds at 30 mg/kg. Plasma was collected via retro-orbital bleeding at 1 hr and 4 hrs after dosing. Whole brain without cerebellum was collected at 4 hrs after dosing. Wet brain weight was recorded before freezing. Brains were homogenized in saline and sent for analysis for determination of concentration of test compound.
Table BIO-3 below present results for representative compounds of the present invention, tested according to the procedure as described above. Each compound was tested in three animals (N=3) and administered PA at 20 mg/kg

[5] = brain, read-out: BRAIN Mean Conc. ± Std. Dev
[6] = plasma, read-out: PLASMA Mean Conc. ± Std. Dev

Sequence of Human CB1R (Cannabinoid receptor 1) (P21554 whole entry): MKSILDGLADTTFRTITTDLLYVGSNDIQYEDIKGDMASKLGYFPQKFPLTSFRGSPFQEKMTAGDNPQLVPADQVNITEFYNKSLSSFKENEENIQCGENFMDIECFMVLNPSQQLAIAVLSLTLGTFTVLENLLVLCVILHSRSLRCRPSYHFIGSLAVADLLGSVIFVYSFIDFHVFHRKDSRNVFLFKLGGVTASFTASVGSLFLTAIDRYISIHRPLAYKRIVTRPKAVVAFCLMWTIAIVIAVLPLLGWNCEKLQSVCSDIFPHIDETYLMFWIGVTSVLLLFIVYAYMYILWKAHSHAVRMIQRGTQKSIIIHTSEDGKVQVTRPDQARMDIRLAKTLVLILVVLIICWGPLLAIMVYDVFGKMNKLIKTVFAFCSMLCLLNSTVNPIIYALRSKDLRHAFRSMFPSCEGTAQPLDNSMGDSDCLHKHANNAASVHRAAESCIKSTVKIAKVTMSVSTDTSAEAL
Sequence of Human CB2R (Cannabinoid receptor 2) (P34972 whole entry): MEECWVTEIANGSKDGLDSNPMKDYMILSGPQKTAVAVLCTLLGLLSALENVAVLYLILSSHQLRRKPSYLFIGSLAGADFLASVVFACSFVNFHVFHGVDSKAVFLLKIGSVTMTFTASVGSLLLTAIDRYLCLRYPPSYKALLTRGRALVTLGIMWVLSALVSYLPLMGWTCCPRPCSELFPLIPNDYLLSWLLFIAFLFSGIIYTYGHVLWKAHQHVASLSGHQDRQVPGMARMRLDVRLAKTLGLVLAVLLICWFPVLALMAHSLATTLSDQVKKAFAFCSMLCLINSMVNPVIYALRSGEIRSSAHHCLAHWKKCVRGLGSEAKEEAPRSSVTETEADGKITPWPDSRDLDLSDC

Structure (SMILES)	EC50 [1] [nM]	concentration at 1 h ([2]; male, C57bl/6j, brain, read-out: BRAIN Mean Conc. ± Std. Dev) [ng/mL]	EC50 [3] [nM]	concentration at 4 h [4, 5] [ng/mL]	concentration at 1 h [4, 6] [ng/mL]	concentration at 4 h [4, 6] [ng/mL]	BRAIN Mean Conc. ± Std. Dev ([2]; 1 hr)
O=c1cc(NC2CCN(S(=O)(=O)C(F)(F)F)CC2)c2cc(C(c3ccc(Cl)cc3)c3nccs3)ccc2[nH]1 (stereo not shown) [Compound #41, 6-((4-chlorophenyl)(thiazol-2-yl)methyl)-4-((1-((trifluoromethyl)sulfonyl)piperidin-4-yl)amino)quinolin-2(1H)-one]	15	7.43	8150	0	714 ± 188	291 ± 90.5	–
O=c1cc(Nc2ccc(C(F)(F)F)cc2)c2cc(C(c3ccc(Cl)cc3)c3ccc(Cl)cc3)ccc2[nH]1 [Compound #59, 6-(bis(4-chlorophenyl)methyl)-4-((4-(trifluoromethyl)phenyl)amino)quinolin-2(1H)-one]	7	–	> 10000	59.7 ± 9.55	2320 ± 1020	1610 ± 563	BLOQ ± NA
O=c1cc(NC2CCN(S(=O)(=O)c3cccc(F)c3)CC2)c2cc(C(c3ccc(Cl)cc3)c3ccc(Cl)cc3)ccc2[nH]1 [Compound 82, 6-[Bis(4-chlorophenyl)methyl]-4-({1-[(3-fluorophenyl)sulfonyl]-piperidin-4-yl}amino)quinolin-2(1H)-one]	63	–	3200	–	–	–	–
O=c1cc(NC2CCN(c3ncccn3)CC2)c2cc(C(c3ccc(Cl)cc3)c3ccc(Cl)cc3)ccc2[nH]1 [Compound 57, 6-(bis(4-chlorophenyl)methyl)-4-((1-(pyrimidin-2-yl)piperidin-4-yl)amino)quinolin-2(1H)-one]	11	–	4100	–	–	–	–
O=C(O)c1ccc(CN2CCC(Nc3cc(=O)[nH]c4ccc(C(c5ccc(Cl)cc5)c5ccc(Cl)cc5)cc34)CC2)s1 [Compound 128, 5-{[4-({6-[Bis(4-chlorophenyl)methyl]-2-oxo-1,2-dihydroquinolin-4-yl}amino)piperidin-1-yl]methyl}thiophene-2-carboxylic acid]	293	–	9700	–	–	–	–
O=c1cc(NC2CCN(CC(F)(F)F)CC2)c2cc(C(c3ccc(Cl)cc3)c3ccc(Cl)cc3)ccc2[nH]1 [Compound #77, 6-(bis(4-chlorophenyl)methyl)-4-((1-(2,2,2-trifluoroethyl)piperidin-4-yl)amino)quinolin-2(1H)-one]	3	–	> 10000	–	–	–	–
CCOC(=O)COc1cc(C(c2ccc(Cl)cc2)c2ccc(Cl)cc2)cc2c(NC3CCN(S(=O)(=O)C(F)(F)F)CC3)cc(=O)[nH]c12 [Compound 544]	126	–	3400	–	–	–	–

— patent US9266835B2, “Quinoline derivatives useful as CB-1 inverse agonists” (JANSSEN PHARMACEUTICA NV, priority 2014, dated 2016)
